Reference: patent US9290768B2, “Engineered microorganisms having resistance to ionic liquids” (priority 2012, dated 2016)

Assays:
[1] = test system: E. coli expressing the transporter gene; assay type: cell-based; conditions: ionic liquids at equimolar levels; MFS1-expressing E. coli
Protocol: Top line, MFS/[C2mim]Cl; Second line from top, MFS/C2mim]Oac; Second line from bottom, empty vector//[C2mim]Cl; Bottom, line empty vector/C2mim]Oac
In one experiment, E. coli expressing the transporter gene were also cultured in media differing only in the type of imidazolium ionic liquid (at equimolar levels), to assess the influence of aliphatic chain lengths of the cation, and the anions Cl—, BuSO4-, and acetate.

[2] = test system: Enterobacter lignolyticus SCF1; assay: Growth of soil isolate in ionic liquid (IL resistance testing); assay type: cell-based; conditions: Enterobacter lignolyticus SCF1, tropical rain forest soil isolate
Description: In testing for IL resistance in a tropical rain forest soil community, a bacterium that grows in up to 8% 1-ethyl-3-methylimidazolium chloride ([C2mim]Cl) was isolated. It is a Gram-negative anaerobe that is both lignocellulolytic and halotolerant: Enterobacter lignolyticus SCF1 (DeAngelis, et al., Standards in Genomic Sciences 5:69-85, 2011; Khudyakov, et al., Global transcriptome response to ionic liquid by a tropical rain forest soil bacterium, Enterobacter lignolyticus. Proc. Natl. Acad. Sci USA, 2012). We examined SCF1 to identify genes contributing to IL tolerance using various analyses, including screening an E. coli fosmid library containing SCF1 genomic DNA.

[3] = test system: E. coli containing an expression plasmid encoding the entire 2.6 kbp insert; assay: Growth of E. coli carrying the 2.6 kbp SCF1 insert at different levels of [C2mim]Cl (shake flask growth assay); assay type: cell-based; conditions: E. coli clones comprising the mfs1 gene sequence; FIG. 3
Description: FIG. 3 provides data from a 50-ml shake flask growth assay showing the resistance of E. coli containing the 2606 bp region to 4% and 6% [C2mim]Cl. Top panel: lines correspond to E. coli with common sequence; Enterobacter lignolyticus; and E. coli with empty vector; Middle panel (lines designated using hour 6 as a reference point): top line, E. coli with common sequence; middle line, Enterobacter lignolyticus; bottom line, E. coli with empty vector. Bottom panel: top line, E. coli with common sequence; middle line, Enterobacter lignolyticus; bottom line, E. coli with empty vector
SCF1 cells and E. coli containing an expression plasmid encoding the entire 2.6 kbp insert were tested at different levels of [C2mim]Cl.

TetR-repressor = assay: MFS1-GFP fusion protein fluorescence (flow-cytometry), induction of repressor; assay type: cell-based, Enterobacter lignolyticus; conditions: FIG. 5
Protocol: FIG. 5 provides illustrative data showing that [C2mim]Cl-inducible TetR-repressor regulates MFS-expression. […] In the absence of this repressor, the intergenic promoter-region was constitutively turned on (left columns in bar graph compared to right columns).
An SCF1 library was constructed using 30-50 kb genomic DNA inserts in fosmid vectors, and E. coli transformants were plated on 2% [C2mim]Cl for initial selection. GFP-fluorescence was measured by flow-cytometry.
In the absence of this repressor, the intergenic promoter-region was constitutively turned on.

E. coli = assay: Methyl viologen tolerance of E. coli expressing MFS1; assay type: cell-based; conditions: FIG. 6
Description: Bottom solid lines are empty vector and tetR-mfs.
The closest homologue of MFS1 is a methyl viologen transporter protein in K. oxytoca. MFS1 conferred tolerance to this compound in E. coli (FIG. 6).

## CCCCn1cc[n+](C)c1.[Cl-] [BMIM-Cl, 1-butyl-3-methylimidazolium chloride]
[1]
  tolerance of E. coli expressing the transporter gene to the ionic liquid: lower tolerance than with EMIM-Cl

## CC(=O)[O-].CCn1cc[n+](C)c1 [[C2mim]-Acetate, 1-ethyl-3-methylimidazolium acetate]
[1]
  tolerance of E. coli expressing the transporter gene to the ionic liquid: confers tolerance

## CCn1cc[n+](C)c1.[Cl-] [[C2mim]Cl, 1-ethyl-3-methylimidazolium chloride]
[2]
  ionic liquid level in which the bacterium grows: up to 8%
[3]
  ionic liquid level at which the clones exhibited resistance: at least 6%
TetR-repressor
  induction of the TetR-repressor / regulation of MFS1-expression: inducible

## C[n+]1ccc(-c2cc[n+](C)cc2)cc1 [methyl viologen]
E. coli
  tolerance of E. coli conferred by MFS1: confers tolerance
